Data taken from patent US11981711B2, “Methods of treating spinal cord injury using a chondroitin sulfate proteoglycan (CSPG) reduction peptide (CRP) comprising a cell membrane penetrating domain, a CSPG binding domain, and a lysosome targeting domain” (The Cleveland Clinic Foundation, priority 2017, dated 2024).

Legend:
perineuronal nets (PNN) [1] = assay: PNN (WFA) in lumbar cord after chronic SCI; format: in vivo, rat
[2] = test system: serotonin (5-HT) fibers and traced fibers from brain stem and red nuclei; assay: Axon sprouting below the lesion after SCI, sub-acute CRP treatment; format: in vivo, rat
From the text: (§1) Furthermore CRP can efficiently improve locomotion and bladder electromyography (EMG) activities and voiding patterns after SCI.
In particular, 5HT immunoreactivity in lumbosacral level after SCI. […] (G, H) Representative images with double staining of […]

spinal cord injury (SCI) [3] = assay: Locomotion and gait after T8 contusive SCI, sub-acute CRP treatment; format: in vivo, rat
From the text: (§2) In this Example, the CRP has been applied in a preclinical rat model to test the efficacy of the treatment of spinal cord injury (SCI). The injury was made at thoracic 8 level using contusive injury device. The contusive SCI is the most clinical relevance among all experimental SCI models. We have assessed both motor and bladder control as functional outcomes and analyzed anatomical evidences to support these findings. We also selected sub-acute phase (ONE-DAY after SCI) and chronic phase (TWO-MONTHs after SCI) to start our treatment.
as §1
In particular, FIG. 26A-G show Kinematics assessment in SCI rats. (A) Representative total of hindlimb movement trajectories for spinal-intact, SCI+scrambled peptide (scr) and SCI+CRP groups at 3 months post-SCI. […] N=6 to 8 per group.

spinal cord injury (SCI) [4] = assay: Locomotion (BBB 21-point score) and gait after chronic SCI, treatment from two months after SCI; format: in vivo, rat
From the text: Basso, Beattie, and Bresnahan (BBB) 21-point scoring test is used as the locomotion assessment after SCI. SCI causes significant deficits on locomotion function as indicated by the significant drop of BBB scores from 21 of the normal rats. […] However, ISP treatment slightly decreases BBB scores from 11.667±0.211 (two months after SCI) to 11.00±0.577 (two months plus 42 days after SCI) (A).
as §2
(§3) The above were followed up with studies to evaluate the treatment effects of CRP in chronic SCI. The chronic SCI is not only way more challenge to be repaired but also is the clinical status of the majority of patients with SCI.

Neu7-produced CSPGs = assay: Reduction of CSPG produced by Neu7 cells; format: cell-based
[5] = test system: chondroitin sulfate proteoglycan (CSPG); assay: CSPG expression around the spinal cord lesion after contusive SCI, treatment from one day after SCI; format: in vivo, rat
From the text: as §2, §1

spinal cord injury (SCI) [6] = assay: Bladder function (voiding, CMG, EUS EMG) after T8 contusive SCI, sub-acute CRP treatment; format: in vivo, rat
From the text: as §2, §1
(A) Representative cystometrograms (CMG) with micturition (voiding) events (indicated by asterisk) for spinal-intact, SCI+scrambled peptide (scr) and SCI+CRP groups at 3 months post-SCI. […] N=6 to 8 per group.
(A) Representative cystometrograms (CMG) with external urethral sphincter (EUS) electromyogram (EMG) recordings at micturition events for spinal-intact, SCI+scrambled peptide (scr) and SCI+CRP groups at 3 months post-SCI. […] The red dot indicates bursting activity. **, P<0.01; ***, P<0.001 when compared to the spinal-intact group; +, P<0.05, ++, P<0.01; +++, P<0.001 when compared to the scr group. N=6 to 8 per group.

sciatic nerve injury = assay: Gait after complete sciatic nerve transection with peripheral nerve allograft, CRP treatment; format: in vivo; settings: 3 months after complete sciatic nerve transection, subcutaneous once per day, vs vehicle
From the text: The representative 2D trajectory and improved kinematics parameters indicated CRP treated animals improved the stepping more toward to what the uninjured limb did, while compared to the vehicle treated animals. The CRP was delivered through subcutaneous injection near the injured site (once per day) staring immediately after surgery for 3 months.

spinal cord injury (SCI) [7] = assay: Bladder function after chronic SCI, CRP from two months after SCI; format: in vivo, rat
From the text: as §2, §3
The box area indicates the bursting activity.

perineuronal nets (PNN) [8] = assay: Perineuronal nets (WFA staining) in lumbosacral spinal cord after T8 SCI; format: in vivo, rat; settings: 3 months post SCI; vs scrambled peptide
From the text: (A, B) Representative L4 spinal cord transverse images show CRP treatment reduces overall PNN in grey matter of lumbar spinal cord neurons at 3 months post SCI. Notice areas with clear decreased WFA staining of the PNN (asterisk). […] (E, F) Representative higher power immunostaining images of the ventral horn of
transverse L4 sections show the strong PNN intensity (arrow) surrounding the NeuN+ cells in scr treated SCI rats (E), while CRP treatment reduces them (F). *, P<0.05 when compared to the scr treatment. N=8 per group.

5HT fibers = assay: 5HT fiber sprouting in lumbar cord after chronic SCI; format: in vivo, rat; settings: vs scrambled peptide
[9] = 5 months post SCI vs two months post SCI (beginning of treatment)
[10] = 3 months post-SCI, T8 SCI, vs scrambled peptide

YGRKKRRQRRR-PKPRVTWNKKGKKVNSQRF-KFERQKILDQRFFE (NYGRKKRRQRRRPKPRVTWNKKGKKVNSQRFKFERQKILDQRFFEC) [CRP]
PNN (WFA+) in lumbar cord (perineuronal nets (PNN) [1]): robustly decreased PNN
nerve sprouting below lesion from neuron in brain stem and red nucleic ([2]; after SCI, sub-acute treatment): enhances nerve sprouting below lesion
sprouting of serotonin (5-HT) fibers below lesion ([2]; after SCI, sub-acute treatment): enhances sprouting of serotonin (5-HT) fibers
immunoreactivity of 5HT fibers at L4 and L6/S1 levels ([2]; severe contusive SCI, vs scrambled peptide): significantly increases immunoreactivity of 5HT fibers
gait pattern parameters (kinematics, hindlimb trajectories) (spinal cord injury (SCI) [3]; 3 months post-SCI, vs scrambled peptide): significantly improved several parameters of gait pattern
motor function recovery (spinal cord injury (SCI) [3]; out to 91 days post-contusion, sub-acute treatment): significantly promotes motor function recovery
BBB locomotion scale (spinal cord injury (SCI) [4]; [9]): significant increases in BBB locomotion scale
stepping kinematic of both hindlimbs (2D trajectory patterns) (spinal cord injury (SCI) [4]; [9]): improved stepping kinematic of both hindlimbs
average increases in BBB scores (spinal cord injury (SCI) [4]; by two months plus 42 days after SCI, treatment starting two months after SCI): 3.0±0.365
BBB score (spinal cord injury (SCI) [4]; two months after SCI (start of treatment)): 11.75±0.164
BBB score (spinal cord injury (SCI) [4]; two months plus 42 days after SCI, treatment starting two months after contusive SCI): 14.33±0.211
dosage dependence of CSPG reduction (Neu7-produced CSPGs; Neu7 cells): dosage response
CSPG produced by Neu7 cells (Neu7-produced CSPGs; compared with ChABC): significantly reduces CSPG produced by Neu7 cells
CSPG ([5]; three months after SCI, sub-acute treatment): significantly decreased CSPG
CSPG in lesion epicenter and adjacent tissue ([5]; two weeks after contusive SCI, treatment starting one day after SCI, vs vehicle): significantly decreases SCI-induced increases in CSPG
EUS bursting activity (EUS EMG during the void) (spinal cord injury (SCI) [6]; [10]): improves EUS bursting activity
bladder capacity (CMG) (spinal cord injury (SCI) [6]; [10]): smaller bladder capacity
hyperactive bladder (CMG) (spinal cord injury (SCI) [6]; [10]): reduces hyperactive bladder
voiding pressure (CMG) (spinal cord injury (SCI) [6]; [10]): lower voiding pressure
number and amplitude of non-voiding contraction (overactive bladder) (spinal cord injury (SCI) [6]; after SCI, sub-acute treatment): reduction of both the number and amplitude of non-voiding contraction
residual volume and volume per void (spinal cord injury (SCI) [6]; after SCI, sub-acute treatment): reducing residual volume and volume per void toward normal condition
voiding patterns (spinal cord injury (SCI) [6]; after SCI, sub-acute treatment): improves voiding patterns
external urethral sphincter (EUS) activity: number of burst, EMG amplitude, coordination with detrusor contraction (spinal cord injury (SCI) [6]; during the void period, sub-acute treatment): improving external urethral sphincter (EUS) activity
stepping performance of hindlimbs (sciatic nerve injury): improved the stepping performance of hindlimbs
hyperactive bladder (CMG) (spinal cord injury (SCI) [7]; 3 months of treatment starting at 2 months post SCI): reduce hyperactive bladder
EUS bursting activity during the void period (spinal cord injury (SCI) [7]; chronic SCI, vs scrambled peptide): improve EUS bursting activity
voiding patterns (spinal cord injury (SCI) [7]; subcutaneous injection beginning two-month after SCI): significantly improves
PNN at L4 and L6/S1 levels (perineuronal nets (PNN) [8]): significant reduction of PNN
5HT+ nerve fibers sprouting in lumbosacral level (5HT fibers): enhance 5HT+ nerve fibers sprouting
